Legend:
MDA-MB-231 = test: WST-1 proliferation / cytotoxic test; assay type: cell-based, human; details: for IC50: Homo sapiens
Protocol: After observation of cells under the microscope, old media were removed and the adherent cells washed gently twice with PBS (Phosphate Buffer Saline, -Ca^2+, -Mg^2+, Lonza cat n°: 17-512F/12). All cells were detached with 3 ml of trypsin/EDTA (chelator of calcium and magnesium ions) (Lonza), incubated for 5 min at 37°C, and examined using a microscope to ensure that the cells were detached and floating. Then, 3 ml TNS (Trypsin Neutralizing Solution, Lonza, France, cat n° CC-5002) or of culture medium were added to inactivate the trypsin, and the cell suspension was transferred in a falcon tube and centrifuged for 7 min at 1400 rpm. The supernatant was removed and the cell pellet resuspended in […] of culture medium. 50 µL of this solution were transferred in 20 µL of isotonic solution and the cells were counted by count cellular (Beckman Coulter). […]
The cell proliferation WST-1 assay is a colorimetric assay for the quantification of cell proliferation and viability, based on the enzymatic cleavage of the tetrazolium salt WST-1 added to the culture medium, to a water soluble colored formazan dye, detected by absorbance at 450 nm, by mitochondrial succinate-tetrazoliumreductase in viable cells. […]
After an incubation period of 72 h, at day 4, were prepared the 19 mL medium with reagent WST-1 1mL (10 mL WST-1 in 200 mL well). […] The cells were incubated at 37°C in a humidified atmosphere of 5% CO2 for 1h30 and the absorbance at 450-655 nm was measured by Microplate Manager 5.2 (Bio-Rad).

[1] = system: MDA-MB-231 + shRNA directed to NRP1; test: Proliferation assay in shRNA-transfected cells; assay type: cell-based; details: Homo sapiens; inhibition of proliferation; clone MDA-MB-231 + shRNA directed to NRP1
Excerpt: (§1) The cell proliferation WST-1 assay is a colorimetric assay for the quantification of cell proliferation and viability, based on the enzymatic cleavage of the tetrazolium salt WST-1 added to the culture medium, to a water soluble colored formazan dye, detected by absorbance at 450 nm, by mitochondrial succinate-tetrazoliumreductase in viable cells. An augmentation in enzyme activity will then lead to an increase in the amount of formazan dye formed, which directly correlates to the number of metabolically active cells in the culture.
(§2) After an incubation period of 72 h, at day 4, were prepared the 19 mL medium with reagent WST-1 1mL ([…]). The medium was removed from the 96 microplate and 200 µL of solution WST-1/medium were added for each well. The cells were incubated at 37°C in a humidified atmosphere of 5% CO2 for 1h30 and the absorbance at 450-655 nm was measured by Microplate Manager 5.2 (Bio-Rad).
(§3) The effect of compound 1 of the invention on cell proliferation was tested according to the proliferation assay hereinabove described, in MDA-MB-231 cancer cells transfected with shRNA directed to NRP1 or NRP2 or with control shRNA.

[2] = system: MDA-MB-231 + shRNA directed to NRP2; test: Proliferation assay in shRNA-transfected cells; assay type: cell-based; details: Homo sapiens; inhibition of proliferation; clone MDA-MB-231 + shRNA directed to NRP2
Excerpt: as §1, §2, §3

For CCOc1ccccc1NC(=O)c1ccc(C)c(S(=O)(=O)Nc2ccc(C)cc2)c1 [Compound 1, N-(2-ethoxyphenyl)-4-methyl-3-(N-(p-tolyl)sulfamoyl)benzamide], the IC50 (MDA-MB-231; Breast, MDA-MB-231, wst-1 cytotoxic test, 72 h) was 0.7 ± 0.08 µM, the IC50 (MDA-MB-231; inhibition of proliferation, clone MDA-MB-231 (Table 2)) was 0.7 ± 0.05 µM and the “proliferation of MDA-MB-231 cells” value (MDA-MB-231; in vitro, Figure 3B) was “inhibits”. It also gave an IC50 [1] of 9 ± 0.08 µM and an IC50 [2] of 10 ± 0.05 µM.

— patent EP2823816A1, “Inhibitors of Neuropilin and use thereof for the treatment of Neuropilin-related diseases” (Tragex Pharma, priority 2013, dated 2015)
